# Experimental data reported in patent US20040157793A1, “Modified nucleosides as antiviral agents” (priority 2002, published 2004).
# Like-named read-outs stand apart in the source and are kept apart here.
# What was measured:
# [1] = tested on: HBV (3TC-resistant virus: rtV204) in HepAD79 cells; test: microbe, parasite or virus in culture; assay type: cell-based; conditions: for HepAD79 log10 inhibition at 10 μM: HBV DNA in supernatant; for activity against the mutant virus (in words): rtV204 mutant virus
# Description: (§1) HepAD38 and HepAD79 cells were seeded at 5×10^4 cells/well in a 96-well plate in seeding medium (DMEM/F12+10% FBS, 50 μg/ml penicillin, 50 μg/ml streptomycin, 100 μg/ml kanamycin, 400 μg/ml G418, and 0.3 μg/ml tetracycline) and incubated for 2 days at 37° C. in a 5% CO2, humidified atmosphere. The seeding media was removed, and cells were washed 3 times with PBS. Cells were then incubated with 200 μL assay medium (DMEM/F12+10% FBS+P/S/K) containing either (i) no compound, (ii) test compound, or (iii) control drugs at 10 μM. After an additional 5-day (HepAD38) or 13-day incubation (HepAD79, with renewal of the culture media at day 7), the cell supernatant was collected and stored at −70° C. until HBV DNA was quantified.
# (§2) HBV DNA was extracted from supernatant using QiaAmp DNA blood Mini kit (Qiagen) and nucleic acids eluted in 200 μl Viral DNA was detected by quantitative PCR (Q-PCR). The TaqMan probe and primers were designed using the Primer Express software (Applied Biosystems) and cover highly conserved sequences complementary to the DNA sequences present in HBsAg. A total of 5 μl DNA was amplified using reagents and conditions as described by the manufacturer (Applied Biosystems).
# Subsequently, the time course of viral induction in HepAD79 cells over a 13-day incubation period was investigated.
# Therefore, the DNA extracted from the cell supernatant was also amplified by Q-PCR for the presence of cellular DNA (the rRNA gene).
# [2] = tested on: HBV (wild-type virus: rtM204) in HepAD38 cells; test: Suppression of HBV production in HepAD38 cells, viral DNA in supernatant by Q-PCR; assay type: cell-based; conditions: for HepAD38 log10 inhibition at 10 μM: HBV DNA in supernatant; for EC90: read-out: HepAD38 EC90
# Text: The HepAD38 (wild-type virus: rtM204) and HepAD79 (3TC-resistant virus: rtV204) (Stuyver L. J. et al. 2001, Hepatol., 33:751-757) cell lines replicate HBV under conditions that can be regulated with tetracycline (King R. W. et al. 2000, Methods in Molecular Medicine, Vol 24: Antiviral Methods and Protocols, 43-50 (eds: D. Kinchington & R. F. Schinazi), Humana Press Inc, Totowa, N.J.); Ladner, et al. 1997, Antimicrob. Agents Chemother., 41:1715-1720; Ladner S. K., et al. 1998a. Antivir. Chem. Chemother., 9:65-72; Ladner S. K., et al. 1998b. Antimicrob. Agents Chemother., 42:2128-31). In the presence of this drug, the cell supernatant is virtually free of viral DNA, but upon the removal of tetracycline from the culture medium, these cells secrete virus-like particle into the supernatant.
# as §1
# as §2, with “Biosystems). […]” for “Biosystems).”
# [3] = tested on: HepG2 cells (mitochondrial COXII DNA); conditions: HepG2, 14-day treatment
# [4] = HepAD79 cells, 13-day incubation
# [5] = HepAD79 cells, 13-day incubation, read-out: HepAD79 EC90
# [6] = HepAD38 cells, 5-day incubation
# [7] = HepAD38 cells, 5-day incubation, concentration reducing viral load by 90%, unit printed in text only
# [8] = Hepatitis B virus, 312 h, read-out: HepAD79 EC90, HepAD79 cells, 13-day incubation
smiles,measurement,setting,value
"Nc1nc(=O)n(C2CSC(CO)O2)cc1F (single isomer, unassigned; (-)) [(−)-FTC, (−)-enantiomer of 2-hydroxymethyl-5-(5-fluorocytosin-1-yl)-1,3-oxathiolane]",HepAD79 log10 inhibition at 10 μM,[1]; [4],0.28 log10
same,EC90,[1]; [5],> 10 µM
same,HepAD38 log10 inhibition at 10 μM,[2]; [6],1.59 ± 0.14 log10
same,EC90,[2]; [7],1.16 ± 0.66 µM
"Nc1ccn([C@@H]2CS[C@H](CO)O2)c(=O)n1 [3TC, (−)-enantiomer of 2-hydroxymethyl-5-(cytosin-1-yl)-1,3-oxathiolane]",HepAD79 log10 inhibition at 10 μM,[1]; [4],0.67 ± 0.03 log10
same,EC90,[1]; [8],> 10 µM
same,HepAD38 log10 inhibition at 10 μM,[2]; [6],1.97 ± 0.28 log10
same,EC90,"[2]; Hepatitis B virus, 120 h, HepAD38 cells, 5-day incubation, concentration reducing viral load by 90%",0.05 µM
Nc1ncnc2c1ncn2CCOCP(=O)(O)O [Adefovir],HepAD79 log10 inhibition at 10 μM,[1]; [4],0.91 ± 0.11 log10
same,EC90,[1]; [8],> 10 µM
same,EC90,"[1]; read-out: HepAD79 EC90, HepAD79 cells, 13-day incubation",~10 µM
same,HepAD38 log10 inhibition at 10 μM,[2]; [6],0.72 ± 0.12 log10
same,EC90,"[2]; Hepatitis B virus, HePAD38, 120 h",> 10 µM
Nc1ccn([C@H]2O[C@@H](CO)C=C2F)c(=O)n1 [L-2′F-D4C],Average ΔCt ± s.d. MitCoxII,[3]; 10 μM,−0.36 ± 0.02
same,Average ΔCt ± s.d. rDNA,[3]; 10 μM,−0.06 ± 0.27
same,Average ΔΔCt ± s.d. MitCOXII-rDNA,[3]; 10 μM,−0.30 ± 0.28
same,Fold difference in COXII DNA levels normalized for rDNA (range) relative to control,[3]; 10 μM,1.23 (1.02-1.50)
same,Average ΔCt ± s.d. MitCoxII,[3]; 100 μM,0.33 ± 0.21
same,Average ΔCt ± s.d. rDNA,[3]; 100 μM,0.53 ± 0.60
same,Average ΔΔCt ± s.d. MitCOXII-rDNA,[3]; 100 μM,−0.20 ± 0.40
same,Fold difference in COXII DNA levels normalized for rDNA (range) relative to control,[3]; 100 μM,1.15 (0.87-1.52)
same,HepAD79 log10 inhibition at 10 μM,[1]; [4],0.33 log10
same,EC90,[1]; [5],> 10 µM
same,activity against the mutant virus (in words),[1],completely inactive
same,HepAD38 log10 inhibition at 10 μM,[2]; [6],1.77 ± 0.13 log10
same,EC90,[2]; [7],0.74 µM
same,inhibition of wild type HBV (in words),[2],potent inhibitors
Nc1nc(=O)n([C@H]2O[C@@H](CO)C=C2F)cc1F [L-2′F-D4FC],Average ΔCt ± s.d. MitCoxII,[3]; 10 μM,0.05 ± 0.07
same,Average ΔCt ± s.d. rDNA,[3]; 10 μM,−0.23 ± 0.20
same,Average ΔΔCt ± s.d. MitCOXII-rDNA,[3]; 10 μM,0.28 ± 0.17
same,Fold difference in COXII DNA levels normalized for rDNA (range) relative to control,[3]; 10 μM,0.82 (0.73-0.92)
same,Average ΔCt ± s.d. MitCoxII,[3]; 100 μM,0.83 ± 0.17
same,Average ΔCt ± s.d. rDNA,[3]; 100 μM,0.85 ± 0.51
same,Average ΔΔCt ± s.d. MitCOXII-rDNA,[3]; 100 μM,−0.02 ± 0.64
same,Fold difference in COXII DNA levels normalized for rDNA (range) relative to control,[3]; 100 μM,1.01 (0.65-1.58)
same,HepAD79 log10 inhibition at 10 μM,[1]; [4],0.23 log10
same,EC90,[1]; [5],> 10 µM
same,activity against the mutant virus (in words),[1],completely inactive
same,HepAD38 log10 inhibition at 10 μM,[2]; [6],1.91 ± 0.13 log10
same,EC90,[2]; [7],0.63 µM
same,inhibition of wild type HBV (in words),[2],potent inhibitors
